# Target: SARS-CoV-2 Mpro (Severe acute respiratory syndrome coronavirus 2, UniProt P0DTD1)
# Assay type: biochemical
row,Compound,IC50
1,O=C(NC[C@@H]1CC2(CCC2)CN1C(=O)c1ccc(F)c(O)c1)c1cncc2ccccc12 [Z4927220858],11.2 µM
2,Cc1cncc(C(=O)NC[C@H]2c3ccccc3CCN2C(=O)c2cccn3nnnc23)c1 [Z4921675438],10.8 µM
3,O=C(NC[C@H](NC(=O)c1cncc2sccc12)c1ccc2ccccc2c1)c1cocn1 [Z4921678803],12.1 µM
